Tested on: Blattella germanica
Test: Test Example 9: treated filter paper with sucrose bait, Blattella germanica male imagoes
Type: in vivo
Conditions: 500 ppm, 0.7 ml on filter paper, after 6 days
Method: The formulations of Compounds 3 and 10 as obtained in Formulation Example 5 were diluted with water, so as to have a concentration of the active ingredient of 500 ppm, to prepare a test drug solution.
A filter paper having a diameter of 5.5 cm was spread on the bottom of a polyethylene cup having the same diameter and 0.7 ml of the test drug solution was added dropwise onto the filter paper, and 30 mg of sucrose was uniformly placed as bait. Into the polyethylene cup, 2 male imagoes of Blattella germanica were released, and the cup was sealed with a lid. After 6 days, the life and death of Blattella germanica was examined, and the death rate was calculated.

Structure (SMILES) | death rate [%]
CCS(=O)(=O)c1cc([S+]([O-])C(F)(F)F)ccc1-c1nc2cc(C(F)(F)F)cnc2n1C (centres unmarked) [Compound 3] | 100
CCS(=O)(=O)c1cc(SC(F)(F)F)ccc1-c1nc2cc(C(F)(F)C(F)(F)F)cnc2n1C [Compound 10, 2-(2-ethylsulfonyl-4-trifluoromethylsulfanylphenyl)3-methyl-6-pentafluoroethyl-3H-imidazo[4,5-b]pyridine] | 100

Reference: patent US9156838B2, “Fused heterocyclic compound” (Sumitomo Chemical Company, Limited, priority 2012, dated 2015)
